The values that follow come from article PMC3826128 (Marine Drugs, 2013).

Experiment [1] deals with T1, Leishmania donovani DNA topoisomerase IB enzyme (LdTopIB) (Leishmania donovani, UniProt A0A3Q8IHS4+Q8WQM6). As to conditions: earlier work of the group; cited from earlier work.
The target in experiment [2] is T1, Leishmania donovani DNA topoisomerase IB enzyme (LdTopIB). Nature of the experiment: Inhibition of the relaxation activity of recombinant LdTopIB (plasmid DNA relaxation assay). As to conditions: 30 min at 37 °C, 1.56–100 µM. The class given is biochemical. The method, then: One unit of recombinant LdTopIB was assayed in a plasmid DNA relaxation assay for 30 min at 37 °C in the presence of 1.56–100 µM of either acids 1 or 2. Reaction products were resolved in agarose gel and subsequently visualized by ethidium bromide staining. The relative position of the negatively supercoiled DNA substrate is indicated by Sc, R is the relaxed DNA, whereas the ladder of relaxed DNA topoisomer bands is shown in between. Reactions were stopped with a mixture of 1% SDS and 6.1 µg of proteinase K. Lane 1 contains 0.5 µg of pSK plasmid DNA and lane 2, indicated by a 0, is 10% DMSO.
(§1) The LdTopIB and hTopIB inhibitory bioassays were performed as previously described. A brief description of the experimental procedure can be found as the header of Figure 1 and Figure 3.

Experiment [3] deals with T2, human topoisomerase IB enzyme (hTopIB) (Homo sapiens, UniProt P11387).
T2 sequence (P11387 1-765): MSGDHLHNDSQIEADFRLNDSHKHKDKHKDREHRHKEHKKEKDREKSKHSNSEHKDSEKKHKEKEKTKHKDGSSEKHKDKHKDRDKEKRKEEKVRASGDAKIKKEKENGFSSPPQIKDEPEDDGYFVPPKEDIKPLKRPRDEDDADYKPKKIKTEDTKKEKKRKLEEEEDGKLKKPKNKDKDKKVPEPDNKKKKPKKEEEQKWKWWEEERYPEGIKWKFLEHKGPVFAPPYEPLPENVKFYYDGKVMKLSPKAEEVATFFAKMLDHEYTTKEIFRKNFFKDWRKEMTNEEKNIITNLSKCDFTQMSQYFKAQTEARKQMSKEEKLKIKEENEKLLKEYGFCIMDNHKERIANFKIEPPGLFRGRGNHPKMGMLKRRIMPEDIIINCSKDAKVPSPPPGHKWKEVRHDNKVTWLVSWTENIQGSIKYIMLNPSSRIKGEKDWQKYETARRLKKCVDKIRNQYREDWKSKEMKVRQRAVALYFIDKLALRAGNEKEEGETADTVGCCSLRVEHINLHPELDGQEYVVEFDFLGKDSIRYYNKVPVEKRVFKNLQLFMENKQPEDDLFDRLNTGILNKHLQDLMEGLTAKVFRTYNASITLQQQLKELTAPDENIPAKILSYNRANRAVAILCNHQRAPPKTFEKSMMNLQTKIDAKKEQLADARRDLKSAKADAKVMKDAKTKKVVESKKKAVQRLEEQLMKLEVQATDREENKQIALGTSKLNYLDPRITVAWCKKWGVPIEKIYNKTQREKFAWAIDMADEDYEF
Nature of the experiment: Inhibition of the relaxation activity of hTopIB (plasmid DNA relaxation assay). The class given is biochemical. As to conditions: 30 min at 37 °C, 1–100 µM. The method, then: One unit hTopIB was assayed in a plasmid DNA relaxation assay for 30 min at 37 °C in the presence of 1–100 µM of either acids 1 or 2. Reaction products were resolved in agarose gel and subsequently visualized by ethidium bromide staining. The relative position of the negatively supercoiled DNA substrate is indicated by Sc, R is the relaxed DNA, whereas the ladder of relaxed DNA topoisomer bands is shown in between. Reactions were stopped with a mixture of 1% SDS and 6.1 µg of proteinase K. Lane 1 contains 0.5 µg of pSK plasmid DNA and lane 2, indicated by a 0, is 10% DMSO.
as §1

In experiment [4] the test system is LdTopIB CPT^R (LdTopIL^1−561/S175end). Nature of the experiment: Inhibition of CPT-resistant doubly truncated LdTopIB. The class given is biochemical, Leishmania donovani. Particulars: 100 µM, 4 min at 25 °C, judged by supercoiled DNA band. The method, then:
Figure 4 Methoxylated fatty acids inhibit LdTopIB by a CPT-independent mechanism. […] Samples were incubated for 4 min at 25 °C, stopped with 1% SDS and digested for one extra hour at 37 °C in the presence of 1 mg/mL proteinase K. DNA was extracted with one volume of phenol-chloroform and samples were run on a 1% agarose gel containing ethidium bromide to a final concentration of 40 μg/mL in order to separate supercoiled and relaxed DNA. The nicked band corresponds to the stabilized cleavage complexes. The results are representative of three independent trials.

The test system of experiment [5] is L. infantum promastigotes. The experiment in a line: Toxicity towards L. infantum promastigotes. The class given is cell-based, Leishmania infantum. From the text:
(§2) The experimental procedures employed to assess the toxicity of acids 1 and 2 towards L. infantum and L. donovani are the same as the ones previously described. CPT was used as the control drug.

The subject of experiment [6] is Murine Macrophages BALB/c. Nature of the experiment: Toxicity towards murine macrophages. Particulars: Mus musculus, Macrophage. The class given is cell-based. From the text: Murine macrophages were chosen as reference for this study since Leishmania spp. normally infects macrophages and in macrophages is where Leishmania promastigotes are transformed into Leishmania amastigotes. […] The experimental procedures employed to assess the toxicity of acids 1 and 2 towards L. infantum and L. donovani are the same as the ones previously described. CPT was used as the control drug.

Experiment [7] relates to L. donovani promastigotes. The experiment in a line: Toxicity towards L. donovani promastigotes. As to conditions: Leishmania donovani. The class given is cell-based.
Description: as §2

The mark [8] stands for this setting: relaxation activity, read-out: LdTopIB EC50.

Like-named read-outs stand apart in the source and are kept apart here. Some results are limits rather than exact numbers.

T1 sequence (A0A3Q8IHS4 entry or part of it): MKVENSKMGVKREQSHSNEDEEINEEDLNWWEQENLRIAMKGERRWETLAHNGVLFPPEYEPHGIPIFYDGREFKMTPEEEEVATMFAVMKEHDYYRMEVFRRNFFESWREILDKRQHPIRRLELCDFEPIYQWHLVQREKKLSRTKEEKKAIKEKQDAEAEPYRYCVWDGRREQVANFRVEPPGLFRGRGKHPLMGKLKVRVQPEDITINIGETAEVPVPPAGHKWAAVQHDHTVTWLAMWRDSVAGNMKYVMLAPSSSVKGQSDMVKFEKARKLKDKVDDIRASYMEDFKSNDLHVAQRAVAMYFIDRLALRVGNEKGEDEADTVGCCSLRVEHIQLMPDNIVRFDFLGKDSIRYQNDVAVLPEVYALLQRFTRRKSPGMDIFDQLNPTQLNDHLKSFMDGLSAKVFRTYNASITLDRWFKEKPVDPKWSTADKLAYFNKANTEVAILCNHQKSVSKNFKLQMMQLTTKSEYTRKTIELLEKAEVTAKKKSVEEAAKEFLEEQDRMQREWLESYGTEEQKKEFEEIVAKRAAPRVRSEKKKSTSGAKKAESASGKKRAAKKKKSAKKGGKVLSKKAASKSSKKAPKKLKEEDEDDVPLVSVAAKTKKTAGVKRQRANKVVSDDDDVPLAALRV
T1 sequence (Q8WQM6 entry or part of it): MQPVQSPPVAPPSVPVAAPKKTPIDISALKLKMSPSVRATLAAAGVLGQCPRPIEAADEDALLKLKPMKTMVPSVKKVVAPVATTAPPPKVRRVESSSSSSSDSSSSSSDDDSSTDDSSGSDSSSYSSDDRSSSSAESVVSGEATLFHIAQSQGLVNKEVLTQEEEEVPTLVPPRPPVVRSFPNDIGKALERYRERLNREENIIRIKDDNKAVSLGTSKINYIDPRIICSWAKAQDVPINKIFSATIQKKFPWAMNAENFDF

In the case of `CCCCCCCCCCC#CCCCC(OC)C(=O)O` (racemic) [(±)-2-OMe-6-heptadecynoic acid], the half-maximal effective concentration (EC50) in experiment [1] is 17 ± 1 µM.

As for `CCCCCCCCCC/C=C\CCCC(OC)C(=O)O` (racemic) [(±)-2-methoxy-6Z-heptadecenoic acid], the concentration giving a half-maximal response (EC50) in experiment [1] is 41 ± 6 µM.

In the case of `CCCCCCCCCC/C=C\CC/C=C\CCC(OC)C(=O)O` (racemic) [compound 1, (5Z,9Z)-(±)-2-methoxy-5,9-eicosadienoic acid], the EC50 in experiment [2] (setting [8]) is 31 ± 2 µM; in experiment [3], above 100 µM; in experiment [5], 260 ± 20 µM; in experiment [5] (Leishmania infantum), 240 to 260 µM. Further, in experiment [4], the “Inhibition of LdTopIB CPT^R” value is reported as “completely inhibit”. The midpoint of inhibition in experiment [6], the IC50, lay at 110 ± 10 µM.

On to `CCCCCCCCCCC#CCCC#CCCC(OC)C(=O)O` (racemic) [compound 2, (±)-2-methoxy-5,9-eicosadiynoic acid], for which the EC50 in experiment [2] (setting [8]) is 22 ± 1 µM; in experiment [3], above 100 µM; in experiment [5], 240 ± 10 µM; in experiment [5] (Leishmania infantum), 240 to 260 µM. Besides, the “Inhibition of LdTopIB CPT^R” value in experiment [4] is “completely inhibit”. The IC50 in experiment [6] amounted to 90 ± 20 µM.

In the case of `CCCCCCCCCCCCCC#CCCCC(OC)C(=O)O` (racemic) [compound 12, (±)-2-methoxy-6-icosynoic acid], the EC50 is 53 ± 3 µM in experiment [2] (setting [8]), above 100 µM in experiment [3] and 100 µM in experiment [7] (promastigotes). The IC50 in experiment [7] (footnote a, in the column L. infantum EC50, read-out: IC50 against L. donovani promastigotes) is 100 ± 10 µM; in experiment [6], above 100 µM.

For `CC[C@@]1(O)C(=O)OCc2c1cc1n(c2=O)Cc2cc3ccccc3nc2-1` [CPT, Camptothecin, reference compound], the EC50 in experiment [2] (LdTopIB EC50, relaxation activity) is 0.7 ± 0.1 µM; in experiment [5] (Leishmania infantum) it was 1.1 ± 0.1 µM. For the same compound, in experiment [4], the “Inhibition of LdTopIB CPT^R” value is listed as “not able to inhibit”. The compound further came in with an IC50 in experiment [6] of 0.6 ± 0.1 µM.
